Reference: US20140045826A1, “METHODS AND COMPOSITIONS FOR TREATING NEURODEGENERATIVE DISEASES” (ARIAD PHARMACEUTICALS, INC., priority 2011, published 2014)

Experiments:
[1] = mice and humans; cited from earlier work
ALK = ALK (Homo sapiens, UniProt Q9UM73); test: in vitro kinase assay; assay type: biochemical
Aurora C = biological target: T1, Aurora C (Homo sapiens, UniProt Q9UQB9); test: in vitro kinase assay; assay type: biochemical
T1 sequence (Q9UQB9 1-309): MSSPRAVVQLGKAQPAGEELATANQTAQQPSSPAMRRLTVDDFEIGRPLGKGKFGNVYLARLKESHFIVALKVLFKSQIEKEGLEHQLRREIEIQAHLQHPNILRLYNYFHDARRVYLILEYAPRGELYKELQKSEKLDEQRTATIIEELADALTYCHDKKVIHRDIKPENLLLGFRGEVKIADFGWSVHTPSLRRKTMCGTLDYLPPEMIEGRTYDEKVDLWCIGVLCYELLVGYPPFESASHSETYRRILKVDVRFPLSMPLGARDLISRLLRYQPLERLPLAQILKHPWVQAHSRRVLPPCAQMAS

AXL = biological target: T2, AXL (Homo sapiens, UniProt P30530); test: in vitro kinase assay; assay type: biochemical
T2 sequence (P30530 26-894): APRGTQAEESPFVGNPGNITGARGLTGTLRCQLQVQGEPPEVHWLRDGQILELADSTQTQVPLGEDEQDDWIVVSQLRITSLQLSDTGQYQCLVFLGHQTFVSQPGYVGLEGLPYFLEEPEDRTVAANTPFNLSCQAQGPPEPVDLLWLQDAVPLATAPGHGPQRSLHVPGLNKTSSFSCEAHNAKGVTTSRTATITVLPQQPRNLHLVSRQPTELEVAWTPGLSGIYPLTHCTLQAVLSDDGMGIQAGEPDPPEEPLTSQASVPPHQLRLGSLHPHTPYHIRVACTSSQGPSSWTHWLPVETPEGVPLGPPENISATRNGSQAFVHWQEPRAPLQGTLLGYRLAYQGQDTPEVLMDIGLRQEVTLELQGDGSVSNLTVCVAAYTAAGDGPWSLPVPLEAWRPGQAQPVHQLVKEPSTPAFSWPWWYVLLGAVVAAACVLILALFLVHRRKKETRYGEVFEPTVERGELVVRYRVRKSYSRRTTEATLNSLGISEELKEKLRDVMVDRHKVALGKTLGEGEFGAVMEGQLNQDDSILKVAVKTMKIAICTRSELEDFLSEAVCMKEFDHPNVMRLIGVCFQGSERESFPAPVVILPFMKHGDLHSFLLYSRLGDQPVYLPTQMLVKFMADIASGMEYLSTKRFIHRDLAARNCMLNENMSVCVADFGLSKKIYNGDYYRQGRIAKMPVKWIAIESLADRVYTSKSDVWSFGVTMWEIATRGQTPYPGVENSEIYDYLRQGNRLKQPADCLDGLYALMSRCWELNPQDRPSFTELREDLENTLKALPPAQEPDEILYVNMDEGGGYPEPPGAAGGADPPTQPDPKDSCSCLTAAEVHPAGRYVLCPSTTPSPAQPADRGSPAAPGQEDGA

CTK = biological target: T3, CTK (Homo sapiens, UniProt P42679); test: in vitro kinase assay; assay type: biochemical
T3 sequence (P42679 1-507): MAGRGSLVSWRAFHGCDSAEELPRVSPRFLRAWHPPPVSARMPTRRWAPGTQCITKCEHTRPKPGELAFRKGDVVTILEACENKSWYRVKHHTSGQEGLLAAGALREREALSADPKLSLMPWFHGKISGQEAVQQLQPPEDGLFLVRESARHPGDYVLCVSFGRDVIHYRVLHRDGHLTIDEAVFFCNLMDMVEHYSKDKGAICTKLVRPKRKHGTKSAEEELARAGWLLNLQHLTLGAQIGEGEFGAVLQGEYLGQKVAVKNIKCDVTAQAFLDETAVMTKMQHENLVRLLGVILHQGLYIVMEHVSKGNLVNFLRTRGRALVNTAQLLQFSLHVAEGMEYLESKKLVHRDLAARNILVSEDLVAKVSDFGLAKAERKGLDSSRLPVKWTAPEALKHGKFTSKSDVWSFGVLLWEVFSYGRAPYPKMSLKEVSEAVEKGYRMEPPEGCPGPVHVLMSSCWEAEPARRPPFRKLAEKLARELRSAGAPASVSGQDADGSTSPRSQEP

IRR = IRR (Homo sapiens, UniProt P14616); test: in vitro kinase assay; assay type: biochemical
ITK = biological target: T4, ITK (Homo sapiens, UniProt Q08881); test: in vitro kinase assay; assay type: biochemical
T4 sequence (Q08881 1-620): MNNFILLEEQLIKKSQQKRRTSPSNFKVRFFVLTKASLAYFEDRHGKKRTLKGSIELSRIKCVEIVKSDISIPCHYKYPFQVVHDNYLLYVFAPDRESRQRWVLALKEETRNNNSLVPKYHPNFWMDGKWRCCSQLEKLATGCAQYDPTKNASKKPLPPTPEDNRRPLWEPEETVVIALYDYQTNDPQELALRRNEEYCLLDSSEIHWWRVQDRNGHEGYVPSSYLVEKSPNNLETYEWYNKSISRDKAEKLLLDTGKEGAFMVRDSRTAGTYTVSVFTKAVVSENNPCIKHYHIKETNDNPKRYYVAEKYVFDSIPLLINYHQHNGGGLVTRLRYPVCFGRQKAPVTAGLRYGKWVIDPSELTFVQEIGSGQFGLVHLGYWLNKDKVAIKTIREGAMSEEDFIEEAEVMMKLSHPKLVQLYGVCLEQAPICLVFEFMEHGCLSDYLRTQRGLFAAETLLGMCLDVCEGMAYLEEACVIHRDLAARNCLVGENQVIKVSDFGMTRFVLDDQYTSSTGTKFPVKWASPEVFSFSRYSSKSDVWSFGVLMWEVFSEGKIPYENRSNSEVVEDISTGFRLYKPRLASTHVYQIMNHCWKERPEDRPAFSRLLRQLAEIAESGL

mTOR = mTOR (Homo sapiens, UniProt P42345); test: in vitro kinase assay; assay type: biochemical
PKC8 = test: in vitro kinase assay; assay type: biochemical
ROS = ROS (Homo sapiens, UniProt P08922); test: in vitro kinase assay; assay type: biochemical
TYK1 = TYK1 (Homo sapiens, UniProt P29376); test: in vitro kinase assay; assay type: biochemical
ZAP70 = biological target: T5, ZAP70 (Homo sapiens, UniProt P43403); test: in vitro kinase assay; assay type: biochemical
T5 sequence (P43403 1-619): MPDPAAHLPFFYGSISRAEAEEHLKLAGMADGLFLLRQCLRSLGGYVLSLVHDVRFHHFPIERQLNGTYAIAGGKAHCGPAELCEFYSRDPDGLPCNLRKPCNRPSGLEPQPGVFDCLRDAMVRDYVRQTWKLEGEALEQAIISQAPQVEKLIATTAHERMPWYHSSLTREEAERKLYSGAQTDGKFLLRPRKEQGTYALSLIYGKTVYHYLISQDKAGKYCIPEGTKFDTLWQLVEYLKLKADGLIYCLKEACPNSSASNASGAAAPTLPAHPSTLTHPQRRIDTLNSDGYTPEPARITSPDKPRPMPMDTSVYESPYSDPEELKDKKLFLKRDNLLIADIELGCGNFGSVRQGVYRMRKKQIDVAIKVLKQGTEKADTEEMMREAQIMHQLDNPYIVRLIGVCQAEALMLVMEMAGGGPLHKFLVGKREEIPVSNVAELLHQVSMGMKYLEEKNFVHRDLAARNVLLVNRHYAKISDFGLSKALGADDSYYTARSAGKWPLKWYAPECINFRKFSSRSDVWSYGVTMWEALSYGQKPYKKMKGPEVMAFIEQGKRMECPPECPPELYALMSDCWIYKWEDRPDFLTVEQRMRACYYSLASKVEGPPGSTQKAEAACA

in vivo = conditions: rat, plasma, po, 5 mg/kg
PGP efflux pump = PGP efflux pump (Homo sapiens, UniProt P08183); test: substrate for the PGP efflux pump
[2] = phase 1 clinical trial, safety and tolerability

ROS, sequence (P08922 28-2347): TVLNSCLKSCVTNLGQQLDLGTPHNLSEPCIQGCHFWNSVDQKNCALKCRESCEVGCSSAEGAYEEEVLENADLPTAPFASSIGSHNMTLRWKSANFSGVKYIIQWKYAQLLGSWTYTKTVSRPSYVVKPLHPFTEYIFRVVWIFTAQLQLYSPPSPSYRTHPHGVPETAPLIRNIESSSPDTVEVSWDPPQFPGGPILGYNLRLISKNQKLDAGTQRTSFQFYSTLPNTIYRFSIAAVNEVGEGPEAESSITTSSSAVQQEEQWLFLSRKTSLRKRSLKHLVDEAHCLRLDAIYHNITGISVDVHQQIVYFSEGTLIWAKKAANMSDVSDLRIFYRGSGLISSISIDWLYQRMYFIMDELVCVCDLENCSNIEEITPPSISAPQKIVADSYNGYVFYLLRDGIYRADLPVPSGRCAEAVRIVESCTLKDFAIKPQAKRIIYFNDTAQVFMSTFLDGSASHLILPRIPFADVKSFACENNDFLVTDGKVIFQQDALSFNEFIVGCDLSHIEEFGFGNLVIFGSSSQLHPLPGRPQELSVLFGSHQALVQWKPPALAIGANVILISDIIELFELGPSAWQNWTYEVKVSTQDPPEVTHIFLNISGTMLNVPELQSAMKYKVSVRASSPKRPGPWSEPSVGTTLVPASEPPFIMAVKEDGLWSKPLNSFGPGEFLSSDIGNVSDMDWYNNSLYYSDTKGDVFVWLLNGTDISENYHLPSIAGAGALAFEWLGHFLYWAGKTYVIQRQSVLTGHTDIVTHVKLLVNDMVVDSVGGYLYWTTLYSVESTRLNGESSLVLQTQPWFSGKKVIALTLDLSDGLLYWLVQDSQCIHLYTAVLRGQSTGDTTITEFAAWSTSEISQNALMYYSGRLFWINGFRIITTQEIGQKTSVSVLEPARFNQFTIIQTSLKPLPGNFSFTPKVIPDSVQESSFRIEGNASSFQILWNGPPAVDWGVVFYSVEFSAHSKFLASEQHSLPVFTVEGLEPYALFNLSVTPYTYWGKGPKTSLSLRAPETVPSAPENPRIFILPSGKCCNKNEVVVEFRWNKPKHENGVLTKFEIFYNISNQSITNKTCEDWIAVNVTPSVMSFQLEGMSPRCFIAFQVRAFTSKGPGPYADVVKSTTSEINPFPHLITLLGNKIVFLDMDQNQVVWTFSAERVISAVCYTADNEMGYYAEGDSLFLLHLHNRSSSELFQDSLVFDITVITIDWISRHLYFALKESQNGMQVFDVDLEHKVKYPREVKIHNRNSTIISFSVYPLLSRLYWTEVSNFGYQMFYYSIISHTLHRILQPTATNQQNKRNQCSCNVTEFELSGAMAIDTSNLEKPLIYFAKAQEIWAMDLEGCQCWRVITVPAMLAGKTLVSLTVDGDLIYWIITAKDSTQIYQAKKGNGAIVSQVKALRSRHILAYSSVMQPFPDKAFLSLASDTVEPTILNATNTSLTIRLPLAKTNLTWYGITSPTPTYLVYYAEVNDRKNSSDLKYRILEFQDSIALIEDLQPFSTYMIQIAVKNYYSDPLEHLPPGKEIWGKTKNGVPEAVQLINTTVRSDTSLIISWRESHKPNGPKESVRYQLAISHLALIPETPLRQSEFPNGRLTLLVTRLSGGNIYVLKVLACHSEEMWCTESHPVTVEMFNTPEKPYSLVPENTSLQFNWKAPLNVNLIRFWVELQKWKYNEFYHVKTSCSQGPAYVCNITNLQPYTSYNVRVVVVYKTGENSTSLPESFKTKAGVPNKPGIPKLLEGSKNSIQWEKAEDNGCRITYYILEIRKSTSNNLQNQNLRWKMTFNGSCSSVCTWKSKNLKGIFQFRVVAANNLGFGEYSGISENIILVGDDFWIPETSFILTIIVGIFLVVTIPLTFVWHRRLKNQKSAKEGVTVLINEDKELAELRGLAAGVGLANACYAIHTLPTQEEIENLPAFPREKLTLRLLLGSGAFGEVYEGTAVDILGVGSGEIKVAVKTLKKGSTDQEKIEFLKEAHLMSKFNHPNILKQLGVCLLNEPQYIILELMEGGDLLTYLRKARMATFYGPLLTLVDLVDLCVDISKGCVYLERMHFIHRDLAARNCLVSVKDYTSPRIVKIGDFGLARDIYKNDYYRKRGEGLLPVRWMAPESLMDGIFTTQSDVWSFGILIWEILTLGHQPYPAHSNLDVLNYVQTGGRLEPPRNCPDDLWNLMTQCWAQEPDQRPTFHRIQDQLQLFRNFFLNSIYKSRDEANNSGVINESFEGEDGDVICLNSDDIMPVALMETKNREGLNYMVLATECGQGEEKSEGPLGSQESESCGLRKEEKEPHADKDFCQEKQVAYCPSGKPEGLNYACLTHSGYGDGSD
ALK, sequence (Q9UM73 19-1620): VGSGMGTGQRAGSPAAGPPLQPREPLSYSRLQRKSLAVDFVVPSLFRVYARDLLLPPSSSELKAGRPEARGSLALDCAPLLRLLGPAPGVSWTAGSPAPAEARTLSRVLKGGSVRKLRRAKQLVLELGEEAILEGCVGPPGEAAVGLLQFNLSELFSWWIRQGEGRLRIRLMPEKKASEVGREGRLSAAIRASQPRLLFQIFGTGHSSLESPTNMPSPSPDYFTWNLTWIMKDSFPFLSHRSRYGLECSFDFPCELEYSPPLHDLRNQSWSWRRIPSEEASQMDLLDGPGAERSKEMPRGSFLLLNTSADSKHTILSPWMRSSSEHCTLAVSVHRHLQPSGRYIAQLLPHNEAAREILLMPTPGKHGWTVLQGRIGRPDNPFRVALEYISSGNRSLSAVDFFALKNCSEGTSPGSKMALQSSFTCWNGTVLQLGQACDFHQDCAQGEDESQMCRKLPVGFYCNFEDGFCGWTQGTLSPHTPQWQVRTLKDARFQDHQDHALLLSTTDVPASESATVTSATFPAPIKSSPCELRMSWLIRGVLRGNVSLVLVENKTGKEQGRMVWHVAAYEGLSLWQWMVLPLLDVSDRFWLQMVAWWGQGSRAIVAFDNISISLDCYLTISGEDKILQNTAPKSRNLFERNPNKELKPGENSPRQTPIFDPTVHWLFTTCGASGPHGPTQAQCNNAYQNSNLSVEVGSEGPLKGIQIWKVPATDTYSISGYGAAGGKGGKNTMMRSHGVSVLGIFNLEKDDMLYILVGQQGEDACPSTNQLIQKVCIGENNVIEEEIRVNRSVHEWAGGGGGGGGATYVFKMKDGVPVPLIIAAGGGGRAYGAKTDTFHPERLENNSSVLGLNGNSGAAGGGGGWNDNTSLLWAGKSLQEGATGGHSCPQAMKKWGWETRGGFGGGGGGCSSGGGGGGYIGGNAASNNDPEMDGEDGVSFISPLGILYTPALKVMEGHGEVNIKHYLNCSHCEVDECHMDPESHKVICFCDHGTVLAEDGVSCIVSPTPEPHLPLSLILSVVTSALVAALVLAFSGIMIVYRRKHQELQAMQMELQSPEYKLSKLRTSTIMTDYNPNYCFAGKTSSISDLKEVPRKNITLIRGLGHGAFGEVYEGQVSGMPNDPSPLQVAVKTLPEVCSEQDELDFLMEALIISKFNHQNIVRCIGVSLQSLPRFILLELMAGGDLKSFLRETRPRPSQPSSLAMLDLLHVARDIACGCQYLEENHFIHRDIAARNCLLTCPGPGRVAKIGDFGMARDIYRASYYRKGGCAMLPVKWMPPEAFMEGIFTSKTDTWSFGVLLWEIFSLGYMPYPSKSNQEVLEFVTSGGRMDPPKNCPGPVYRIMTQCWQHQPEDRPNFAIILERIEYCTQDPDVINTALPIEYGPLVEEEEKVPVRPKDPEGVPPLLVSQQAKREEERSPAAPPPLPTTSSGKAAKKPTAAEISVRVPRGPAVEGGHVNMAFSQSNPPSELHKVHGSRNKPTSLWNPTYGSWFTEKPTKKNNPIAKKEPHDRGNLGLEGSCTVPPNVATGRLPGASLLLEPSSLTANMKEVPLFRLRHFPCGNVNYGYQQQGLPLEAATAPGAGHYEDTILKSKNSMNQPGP
TYK1, sequence (P29376 17-864, species assumed): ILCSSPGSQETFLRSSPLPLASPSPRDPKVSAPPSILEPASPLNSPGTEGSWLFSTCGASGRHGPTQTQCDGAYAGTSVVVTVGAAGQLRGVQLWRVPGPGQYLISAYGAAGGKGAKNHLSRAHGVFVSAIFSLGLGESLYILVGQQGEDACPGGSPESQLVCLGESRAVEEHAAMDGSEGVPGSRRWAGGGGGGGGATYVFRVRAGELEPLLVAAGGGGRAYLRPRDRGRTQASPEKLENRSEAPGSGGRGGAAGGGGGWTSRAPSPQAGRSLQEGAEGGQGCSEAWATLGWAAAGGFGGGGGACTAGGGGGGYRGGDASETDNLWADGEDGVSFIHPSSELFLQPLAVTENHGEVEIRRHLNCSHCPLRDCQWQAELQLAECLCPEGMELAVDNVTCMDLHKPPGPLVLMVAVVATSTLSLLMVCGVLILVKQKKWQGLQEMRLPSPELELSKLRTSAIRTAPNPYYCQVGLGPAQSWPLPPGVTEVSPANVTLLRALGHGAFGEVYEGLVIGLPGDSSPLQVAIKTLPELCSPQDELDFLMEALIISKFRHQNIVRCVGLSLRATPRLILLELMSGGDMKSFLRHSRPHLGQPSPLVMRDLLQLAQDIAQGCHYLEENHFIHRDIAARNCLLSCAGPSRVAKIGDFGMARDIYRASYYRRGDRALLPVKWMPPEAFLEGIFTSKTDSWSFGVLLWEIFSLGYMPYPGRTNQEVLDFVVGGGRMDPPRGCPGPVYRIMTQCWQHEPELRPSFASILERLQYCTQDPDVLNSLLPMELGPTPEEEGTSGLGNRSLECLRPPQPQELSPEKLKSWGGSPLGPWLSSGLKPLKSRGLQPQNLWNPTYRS

For `Cc1ccc(NC(=O)c2ccc(CN3CCN(C)CC3)cc2)cc1Nc1nccc(-c2cccnc2)n1` [STI-571], the “penetration of the blood-brain barrier” value [1] is given as “poor penetration of the blood-brain barrier”.

For `Cc1ccc(C(=O)Nc2ccc(CN3CCN(C)CC3)c(C(F)(F)F)c2)cc1C#Cc1cnc2cccnn12` [ponatinib, 3-(Imidazo[1,2-b]pyridazin-3-ylethynyl)-4-methyl-N-(4-((4-methylpiperazin-1-yl)methyl)-3-(trifluoromethyl)phenyl)benzamide], the IC50 (ALK) was greater than 1 µM, the IC50 (Aurora C) was greater than 1 µM and the IC50 (AXL) was greater than 1 µM. For the same molecule, the IC50 (CTK) was greater than 1 µM, the IC50 (IRR) was greater than 1 µM and the IC50 (ITK) was greater than 1 µM. For the same molecule, the IC50 (mTOR) was greater than 1 µM, the IC50 (PKC8) was greater than 1 µM and the IC50 (ROS) was greater than 1 µM. It also gave an IC50 (TYK1) greater than 1 µM, an IC50 (ZAP70) greater than 1 µM and a Cmax (in vivo) of 0.175 µg/mL. For the same molecule, the “substrate for the PGP efflux pump” value (PGP efflux pump) was “poor substrate”, the “dose limiting toxicities (DLTs)” value ([2]; 45 mg cohort) was “a reversible rash was seen with one patient” and the “dose limiting toxicities (DLTs)” value ([2]; 60 mg cohort) was “four patients developed reversible pancreatic related DLT (pancreatitis)”. The “dose limiting toxicities (DLTs)” value ([2]; 2 to 30 mg cohorts) was “no dose limiting toxicities (DLTs) were observed”, the “maximum tolerated dose (MTD)” value ([2]; patients with refractory hematological cancers, oral, dose escalation 2-60 mg) was 45 mg and the “drug-related adverse events of any grade: anemia” value ([2]; phase 1 patients) was 12%. For the same molecule, the “drug-related adverse events of any grade: lipase increase” value ([2]; phase 1 patients) was 12%, the “drug-related adverse events of any grade: nausea” value ([2]; phase 1 patients) was 12% and the “drug-related adverse events of any grade: rash” value ([2]; phase 1 patients) was 12%. The “drug-related adverse events of any grade: thrombocytopenia” value ([2]; phase 1 patients) was 25% and the tolerability ([2]; phase 1 study conclusion) was “well tolerated”.
